# Assay results published in patent publication US7101878B1 (Agouron Pharmaceuticals, Inc., priority 1998, dated 2006).
# Target: T1, mouse GnRH receptor (Mus musculus, UniProt Q01776)
# T1 construct: expressed in transfected cells; host or cells: 293 cells
# T1 sequence (Q01776 1-327): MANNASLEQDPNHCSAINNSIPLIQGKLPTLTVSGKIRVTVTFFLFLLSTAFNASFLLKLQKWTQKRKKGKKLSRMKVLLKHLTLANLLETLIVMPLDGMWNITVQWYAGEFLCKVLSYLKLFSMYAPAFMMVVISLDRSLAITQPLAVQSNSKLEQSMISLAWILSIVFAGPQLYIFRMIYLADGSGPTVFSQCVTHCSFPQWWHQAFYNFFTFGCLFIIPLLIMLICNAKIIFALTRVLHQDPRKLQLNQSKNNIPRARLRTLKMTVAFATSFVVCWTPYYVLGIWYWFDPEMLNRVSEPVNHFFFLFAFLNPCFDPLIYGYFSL
# Test: Radioligand binding, 125I-GnRH-A, 293 cells expressing mouse GnRH receptors
# Conditions: 10 uM; read-out: % Inhib. @ 10 uM mGnRH
# Procedure, shortened: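 Bound label captured on 0.1% polyethyleneimine-treated GF/C filters, washed three times with PBS, counted. IC50 derived; identical set-up for every species.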
row,SMILES,inhibition at 10 µM [%]
1,Cc1cc2c(cc1Cc1ccc(C(=O)N3CCN(Cc4ccccc4)CC3)o1)C(C)(C)CCC2(C)C,83
2,Cc1cc2c(cc1Cc1ccc(C(=O)N3CCN(C(=O)C(c4ccccc4)c4ccccc4)CC3)o1)C(C)(C)CCC2(C)C,36
3,Cc1cc2c(cc1Cc1ccc(C(=O)N(C)C3CCCCC3)o1)C(C)(C)CCC2(C)C,97
4,CCOC(=O)CC1C(=O)NCCN1C(=O)c1ccc(Cc2cc3c(cc2C)C(C)(C)CCC3(C)C)o1 (stereo not shown),98
5,Cc1cc2c(cc1Cc1ccc(C(=O)N(CCCN3CCN(C)CC3)Cc3ccc(OCCCN(C)C)cc3)o1)C(C)(C)CCC2(C)C,100
6,Cc1cc2c(cc1Cc1ccc(C(=O)NC(CO)C(C)(C)C)o1)C(C)(C)CCC2(C)C (stereo not shown),101
7,Cc1cc2c(cc1Cc1ccc(C(=O)NC(C(C)C)C(C)C)o1)C(C)(C)CCC2(C)C,58
8,C#CCN(C)C(=O)c1ccc(Cc2cc3c(cc2C)C(C)(C)CCC3(C)C)o1,83
9,Cc1cc2c(cc1Cc1ccc(C(=O)N3CCC3)o1)C(C)(C)CCC2(C)C,63
10,Cc1cc2c(cc1Cc1ccc(C(=O)NCCN(C(C)C)C(C)C)o1)C(C)(C)CCC2(C)C,102

# The next lines start with the values.
row,inhibition at 10 µM [%],SMILES
1,104,Cc1cc2c(cc1Cc1ccc(C(=O)N(CCN3CCCCC3)Cc3ccccc3)o1)C(C)(C)CCC2(C)C [drawing 1460]
2,83,COc1ccc(C(NC(=O)c2ccc(Cc3cc4c(cc3C)C(C)(C)CCC4(C)C)o2)C2CC2)cc1 (stereo not shown) [drawing 1435]
3,76,Cc1cc2c(cc1Cc1ccc(C(=O)N(Cc3ccc(C(C)C)cc3)Cc3cccnc3)o1)C(C)(C)CCC2(C)C [drawing 1474]
4,93,Cc1cc2c(cc1Cc1ccc(C(=O)NCCCOC(C)C)o1)C(C)(C)CCC2(C)C [drawing 1487]
5,70,Cc1cc2c(cc1Cc1ccc(C(=O)N3CCc4ccccc4C3)o1)C(C)(C)CCC2(C)C [drawing 1422]
6,56,Cc1cc2c(cc1Cc1ccc(C(=O)NCCNc3cccc4ccccc34)o1)C(C)(C)CCC2(C)C [drawing 1449]
7,97,Cc1cc2c(cc1Cc1ccc(C(=O)NC3CCCCC3O)o1)C(C)(C)CCC2(C)C (stereo not shown) [drawing 1522]
8,79,Cc1cc2c(cc1Cc1ccc(C(=O)N3CCN(CC(=O)N4CCCC4)CC3)o1)C(C)(C)CCC2(C)C [drawing 1432]
9,68,CCN(CC)CCN(C)C(=O)c1ccc(Cc2cc3c(cc2C)C(C)(C)CCC3(C)C)o1 [drawing 1428]
10,89,Cc1cc2c(cc1Cc1ccc(C(=O)N(C)C3CCN(C)CC3)o1)C(C)(C)CCC2(C)C [drawing 1420]
11,72,Cc1cc2c(cc1Cc1ccc(C(=O)NC(C)(C)C)o1)C(C)(C)CCC2(C)C [drawing 1450]
12,55,Cc1cc2c(cc1Cc1ccc(C(=O)NC(C)(CO)CO)o1)C(C)(C)CCC2(C)C [drawing 1444]
13,73,CC(=O)N1CCCN(C(=O)c2ccc(Cc3cc4c(cc3C)C(C)(C)CCC4(C)C)o2)CC1 [drawing 1503]
14,47,Cc1cc2c(cc1Cc1ccc(C(=O)NCCc3ccc(Br)cc3)o1)C(C)(C)CCC2(C)C [drawing 1371]
15,57,Cc1cc2c(cc1Cc1ccc(C(=O)N(Cc3cccc4ccccc34)C3CCN(Cc4ccccc4)C3)o1)C(C)(C)CCC2(C)C (stereo not shown) [drawing 1563]
16,42,Cc1cc2c(cc1Cc1ccc(C(=O)NCCn3c([N+](=O)[O-])cnc3C)o1)C(C)(C)CCC2(C)C [drawing 1486]
17,52,Cc1cc2c(cc1Cc1ccc(C(=O)N3C[C@H]4CCCC[C@H]4CC3C(=O)NC(C)(C)C)o1)C(C)(C)CCC2(C)C (stereo partly shown) [drawing 1502]
18,106,Cc1cc2c(cc1Cc1ccc(C(=O)NCCCCCCN(C)C)o1)C(C)(C)CCC2(C)C [drawing 1519]
19,103,Cc1cc2c(cc1Cc1ccc(C(=O)NCCCCCCO)o1)C(C)(C)CCC2(C)C [drawing 1550]

# Same assay, conditions: 1 h, substrate remaining; 10 uM compound; closer to zero = closer to 100% inhibition; read-out: S%R 10 uM mGnRHR
row,SMILES,remaining activity at 10 µM [%]
1,Cc1cc2c(cc1Cc1ccc(C(=O)NCCc3ccc(Oc4ccccc4)cc3)o1)C(C)(C)CCC2(C)C [Compound 622],43
2,Cc1cc2c(cc1Cc1ccc(C(=O)N3CCCC(C)(C)C3)o1)C(C)(C)CCC2(C)C [Compound 657],3
3,Cc1cc2c(cc1Cc1ccc(C(=O)NC3CCC3)o1)C(C)(C)CCC2(C)C [Compound 572],41
4,Cc1cc2c(cc1Cc1ccc(C(=O)NCc3cccc(CNC(=O)C(Cc4ccccc4)c4ccccc4)c3)o1)C(C)(C)CCC2(C)C (stereo not shown) [Compound 613],53
5,Cc1cc2c(cc1Cc1ccc(C(=O)NCCCOC(C)C)o1)C(C)(C)CCC2(C)C [Compound 560],7
6,Cc1cc2c(cc1Cc1ccc(C(=O)NCCc3ccc(S(N)(=O)=O)cc3)o1)C(C)(C)CCC2(C)C [Compound 461],53
7,Cc1cc2c(cc1Cc1ccc(C(=O)NCCN3CCNC3=O)o1)C(C)(C)CCC2(C)C [Compound 520],-3
8,CC(=O)N(C)C1CCN(C(=O)c2ccc(Cc3cc4c(cc3C)C(C)(C)CCC4(C)C)o2)C1 (stereo not shown) [Compound 544],27
9,Cc1cc2c(cc1Cc1ccc(C(=O)N(CCC(c3ccccc3)c3ccccc3)Cc3ccco3)o1)C(C)(C)CCC2(C)C [Compound 630],58
10,Cc1cc2c(cc1Cc1ccc(C(=O)NCCCN(C)CCCN)o1)C(C)(C)CCC2(C)C [Compound 496],-6
11,Cc1cc2c(cc1Cc1ccc(C(=O)NCCc3ccc(Cl)cc3Cl)o1)C(C)(C)CCC2(C)C [Compound 524],35
12,Cc1cc2c(cc1Cc1ccc(C(=O)N3CCc4ccccc4C3)o1)C(C)(C)CCC2(C)C [Compound 562],30
13,Cc1cc2c(cc1Cc1ccc(C(=O)NCc3cccc(NC(=O)N(Cc4ccccc4)c4ccccc4)c3)o1)C(C)(C)CCC2(C)C [Compound 511],47
14,Cc1cc2c(cc1Cc1ccc(C(=O)NCC(=O)Nc3ccc([N+](=O)[O-])cc3)o1)C(C)(C)CCC2(C)C [Compound 464],7
15,Cc1cc2c(cc1Cc1ccc(C(=O)NCC3CCN(c4ccnc(Cl)n4)CC3)o1)C(C)(C)CCC2(C)C [Compound 530],-4
16,Cc1cc2c(cc1Cc1ccc(C(=O)NCC(O)c3ccccc3)o1)C(C)(C)CCC2(C)C (stereo not shown) [Compound 596],-1
17,Cc1cc2c(cc1Cc1ccc(C(=O)NCCS)o1)C(C)(C)CCC2(C)C [Compound 609],47
18,Cc1cc2c(cc1Cc1ccc(C(=O)NCCCCCCO)o1)C(C)(C)CCC2(C)C [Compound 617],-2
19,Cc1cc2c(cc1Cc1ccc(C(=O)NCc3ccc(F)cc3)o1)C(C)(C)CCC2(C)C [Compound 604],4
20,COc1cc(OC)cc(N2CCN(C(=O)c3ccc(Cc4cc5c(cc4C)C(C)(C)CCC5(C)C)o3)CC2)c1 [Compound 647],35

# Continued, values first:
row,remaining activity at 10 µM [%],SMILES
1,54,Cc1cc2c(cc1Cc1ccc(C(=O)N3CCc4ccccc4C3Cc3ccccc3)o1)C(C)(C)CCC2(C)C (stereo not shown) [Compound 677]
2,24,CCC(CC)NC(=O)c1ccc(Cc2cc3c(cc2C)C(C)(C)CCC3(C)C)o1 [Compound 666]
3,12,Cc1cc2c(cc1Cc1ccc(C(=O)N(Cc3cccnc3)Cc3ccco3)o1)C(C)(C)CCC2(C)C [Compound 665]
